6 molecules from patent US20230181638A1, “IMMUNOGENIC PEPTIDES WITH NEW OXIDOREDUCTASE MOTIFS” (IMCYSE SA, priority 2020, published 2023) can be followed below.

For data set [1], the system named is Experimental Auto-Immune Encephalomyelitis (EAE). Kind of data set: prophylactic administration, EAE clinical score in mice. Format: in vivo, C57BL/6 mice. Conditions: vs Alum control group, FIG. 2C, FIG. 4.
For data set [2] the test system is unchanged. Kind of data set: therapeutic administration, EAE clinical score in mice. Format: in vivo. Conditions: for mice died: therapeutic EAE study, 16 mice per group, deaths did not appear to be due to EAE. How it is done: The study used a total of 64 female C57BL/6 mice (Taconic Biosciences, 9 weeks old on Day 0). Mice were acclimated for 7 days prior to the first injection. Mice were assigned to groups in a balanced manner to achieve similar average weight across the groups at the start of the study.
Dosing of all mice was performed once on each of the days indicated in Table 6, s.c., at a volume of 0.05 mL/site, each mouse receiving injection at two sites, for a total of 0.1 mL/mouse/dosing day. IMCY-0189, IMCY-0453 or IMCY-0455 peptide total close was […] per administration.
For Saline treatment, 0.9% NaCl solution was prepared at each dosing day. Peptide's preparation was performed as described in example 3.
(§1) AUC, MMS, inflammation and demyelination, and NF-L levels quantification data were analyzed by performing Ordinary one-way ANOVA. Adjustment for multiplicity was performed using Holm-Sidak's method. Significant differences are referred as follows: *p<0.05, **p<0.01, ***p<0.001, ****p<0.0001.
EAE induction and scoring were performed as described in example 3.
EAE development was evaluated by comparing clinical EAE readouts for all groups to the negative control (Saline) group.

For data set [3] the test system is unchanged. Kind of data set: therapeutic EAE study, spinal cord histology (H&E, anti-MBP). The data set is classed as in vivo, C57BL/6 mice. As to conditions: spinal cord sections at end of study, vs Saline control. How it is done: At the end of the study, all mice were euthanized, and spines were collected and placed in 10% buffered formalin for histological analysis.
For each spine, one H&E stained slide and one anti-MBP stained slide were prepared and analyzed. Each slide contained a section with samples from lumbar, thoracic and cervical of spinal cord (3 samples). All analysis was performed by a pathologist blinded to the experimental groups and all clinical readouts.
Inflammatory foci of approximately 20 cells were counted in each H&E stained section. When inflammatory infiltrates consisted of more than 20 cells, an estimate was made of how many foci of 20 cells were present.
Demyelination was scored in each anti-MBP (using immunohistochemistry) stained section. In anti-MBP sections, demyelination is observed as conspicuous unstained areas in white matter tracts and is associated with presence of large vacuoles. […]
AUC, MMS, inflammation and demyelination, and NF-L levels quantification data were analyzed by performing Ordinary one-way ANOVA. […]
Histological readouts were evaluated by comparing inflammation and demyelination levels for all groups to the negative control (Saline) group.

The subject of data set [4] is Neurofilament light (NF-L) protein. Kind of data set: therapeutic EAE study, serum neurofilament levels (Simoa NF-light). As to conditions: serum on Day 28, vs Saline negative control, FIG. 10. Format: in vivo, C57BL/6 mice. The protocol:
On Day 28, blood was collected from all mice into gel dot activator tubes and allowed to dot at room temperature for ˜30 minutes. Blood is then centrifuged at ˜10000 g for 5 minutes. Serum was transferred into Eppendorf tubes and stored at −80° C. until shipment to Quanterix™. Serum Neurofilament light (NF-L) protein levels were quantified using Simoa® NF-light Advantage kit, a digital immunoassay for the quantitative determination of NF-L in serum, plasma and CSF. The used antibodies (Uman Diagnostics, Umeå Sweden) also cross react with murine, bovine and macaque NF-L epitopes and as such, this assay can be used for research with these species. All samples were tested in duplicate at a dilution factor of 40×.
as §1
Axonal damage was also evaluated by comparing NF-L levels for all groups to the negative control (Saline) group.

In data set [5] the test system is 2D2-Total CD4+ cells. Kind of data set: induction of lytic markers on CD4+ T cells after second stimulation. As to conditions: 5 μM control peptide, 10-14 days after S1. The data set is classed as cell-based, 2D2 transgenic mice. An excerpt: 2D2 transgenic mice (Jackson Laboratory) were used as a source of CD4+ cell. […] In this study, 2D2-Total CD4+ cells were purified using manufacture instruction (Miltenyi Biotec, 130-104-454) and antigen presenting cells were splenocyte depleted for T cell repertoire (CD90.2 depletion, Miltenyi Biotec, 130-104-454) from C57BL6 mice (compatible with 2D2-transgenic mice). Control conditions for every study were either no-peptide addition or addition of IMCY-0017, IMCY-0257 or IMCY-0069 (see example 1 and table 1) which the two later, can bind to MHCII from C57BL6-APC efficiently but not activate the TCR from 2D2-transgenic CD4+ T cells. AA controls were not used.
Immunogenic peptides comprising an MCHII T cell epitope and a classical oxidoreductase motif of sequence CxxC are known from the art to induce CD4+ cells with lytic markers called cytolytic CD4+ cells (cCD4+). Therefore, it was attempted to determine whether the peptide variants of the present invention would lead to earlier and/or stronger (percentage or intensity) lytic properties in activated Ag-specific CD4 T cells. […] The FACS results were then determined for all variants of IMCY-0189 and the measurement for the wild type peptide (IMCY-0017) was removed from all the other measurements to determine purely the effect of every modified oxidoreductase motif on the induction of lytic properties.

Where [6] appears, read: therapeutic, 30 μg s.c. with Alum on Days 4, 9, 14, 19, vs Saline negative control.

Where a SMILES comes first, the peptide text is derived from it. Where no end group is shown, it is not given here.

“CPYC-GWYRSPFSRVVHLYR-NH2 (CPYCGWYRSPFSRVVHLYR-NH2; cysteine pairing not given here) [IMCY-0443]”: the “reduction of the peak of the disease or MMS” value in data set [1] is “not observed”.

Consider `CC(C)C[C@H](NC(=O)[C@H](Cc1c[nH]cn1)NC(=O)[C@@H](NC(=O)[C@@H](NC(=O)[C@H](CCCNC(=N)N)NC(=O)[C@H](CO)NC(=O)[C@H](Cc1ccccc1)NC(=O)[C@@H]1CCCN1C(=O)[C@H](CO)NC(=O)[C@H](CCCNC(=N)N)NC(=O)[C@H](Cc1ccc(O)cc1)NC(=O)[C@H](Cc1c[nH]c2ccccc12)NC(=O)CNC(=O)[C@H](CS)NC(=O)[C@H](CCCNC(=N)N)NC(=O)[C@H](CS)NC(=O)[C@@H](N)CCCCN)C(C)C)C(C)C)C(=O)N[C@@H](Cc1ccc(O)cc1)C(=O)N[C@@H](CCCNC(=N)N)C(N)=O` [IMCY-0453, KCRC-GWYRSPFSRVVHLYR-NH2] (H-KCRCGWYRSPFSRVVHLYR-NH2), for which, in data set [2], the mice died is listed as 1.

As for “KCRPYC-GWYRSPFSRVVHLYR-NH2 (KCRPYCGWYRSPFSRVVHLYR-NH2; cysteine pairing not given here) [IMCY-0455, KCRPYC motif variant of IMCY-0189]”, the “level of inflammation (inflammatory foci, H&E)” value in data set [3] (FIG. 8) is listed as “statistically significant reduced level”. Besides, the “level of demyelination (anti-MBP score)” value in data set [3] (FIG. 9) is “statistically significant reduced level”. For the same molecule, the “serum NF-L levels” value in data set [4] is “statistically significant reduced”. In data set [2], this molecule had a mice died of 1. The “all clinical readouts (disease onset, end score, AUC and MMS) as compared to IMCY-0189” value in data set [2] (therapeutic, 30 μg s.c. with Alum on Days 4, 9, 14, 19, vs IMCY-0189 group) is reported as “statistically significantly improved”. In data set [2] (setting [6]), the disease onset entry is “statistically significantly improved” and the end score entry is listed as “statistically significantly improved”. Moreover, in data set [2] (therapeutic, 30 μg s.c. with Alum on Days 4, 9, 14, 19, vs Saline negative control, FIG. 6), the “AUC of EAE scores” value is “statistically significantly improved”. Moreover, the “MMS of EAE scores” value in data set [2] (therapeutic, 30 μg s.c. with Alum on Days 4, 9, 14, 19, vs Saline negative control, FIG. 7) is listed as “statistically significantly improved”.

In the case of “HCPYC-LALWEPKPTQAFVK-NH2 (HCPYCLALWEPKPTQAFVK-NH2; cysteine pairing not given here) [IMCY-0069]”, in data set [5], the “survival of the cell culture up to second stimulation” value is “did not survive in the cell culture”.

Consider “HCPYC-NGGFNSNRANSSRSS-NH2 (HCPYCNGGFNSNRANSSRSS-NH2; cysteine pairing not given here) [IMCY-0257]”, for which, in data set [5], the “survival of the cell culture up to second stimulation” value is reported as “did not survive in the cell culture”.

For `CC(C)C[C@H](NC(=O)[C@H](Cc1c[nH]cn1)NC(=O)[C@@H](NC(=O)[C@@H](NC(=O)[C@H](CCCNC(=N)N)NC(=O)[C@H](CO)NC(=O)[C@H](Cc1ccccc1)NC(=O)[C@@H]1CCCN1C(=O)[C@H](CO)NC(=O)[C@H](CCCNC(=N)N)NC(=O)[C@H](Cc1ccc(O)cc1)NC(=O)[C@H](Cc1c[nH]c2ccccc12)NC(=O)CNC(=O)[C@H](CS)NC(=O)[C@H](Cc1ccc(O)cc1)NC(=O)[C@@H]1CCCN1C(=O)[C@H](CS)NC(=O)[C@@H](N)Cc1c[nH]cn1)C(C)C)C(C)C)C(=O)N[C@@H](Cc1ccc(O)cc1)C(=O)N[C@@H](CCCNC(=N)N)C(N)=O` [IMCY-0189, HCPYC-GWYRSPFSRVVHLYR-NH2, reference compound] (H-HCPYCGWYRSPFSRVVHLYR-NH2), in data set [2], the mice died result is on record as “No mice died”.
